System: Oryzias latipes
Experiment: Ichthyotoxicity against Oryzias latipes at 20 ug/mL
Type: organism-based
Conditions: in vivo

With `C/C1=C/C[C@@H](C(C)C)/C=C/[C@](C)(O)CC/C=C(\C)CC(=O)C1` [SARTONE E] the Activity was “Non-toxic”.

Source: ChEMBL document CHEMBL1144075, “New cembranes from the soft coral sarcophyton species” (J Nat Prod, 1999)
